Assay results: patent US8058243B2, “Method for treating a brain cancer with ifenprodil” (HSC Research and Development Limited Partnership, priority 2006, dated 2011)
Counter-ions that a name gives are not always drawn. Like-named read-outs stand apart in the source and are kept apart here.

System: murine neural precursor cells (neurosphere cultures)
Experiment: HTS of LOPAC library against secondary neurosphere cultures, MTT proliferation assay at 3 μM, day 7 (z score, P value)
Format: cell-based, mouse
[1] = LOPAC library screen, 3 μM, MTT, neurosphere cultures
[2] = primary LOPAC screen, 3 μM, MTT, neurosphere proliferation
[3] = yes/no: significantly inhibited neurosphere proliferation in the primary screen
[4] = LOPAC primary screen, neurosphere MTT proliferation, 3 μM, day 7
[5] = yes/no: significantly inhibited neurosphere proliferation in primary screen
[6] = LOPAC library screen, 3 μM, MTT, secondary neurosphere cultures, day 7
[7] = yes/no: significantly inhibited neurosphere proliferation (P<0.01) in primary screen
[8] = yes = significantly inhibited neurosphere proliferation (P<0.01) in the primary screen

C[C@H](O)[C@H](O)[C@H]1CNc2nc(N)[nH]c(=O)c2N1.Cl
Z Score [1]: 0.9757 | Z score [2]: 0.976 | Activity [3]: no

CC(=O)O[C@H]1C[C@@H]2CC[C@@H]3[C@H](CC[C@@]4(C)[C@H]3C[C@H]([N+]3(C)CCCCC3)[C@@H]4OC(C)=O)[C@@]2(C)C[C@@H]1[N+]1(C)CCCCC1 [Pancuronium bromide]
Z Score [1]: 0.4077 | Z score [4]: 0.408 | Activity [5]: no

CC1=C(C(=O)O)N2C(=O)[C@@H](NC(=O)[C@H](N)c3ccccc3)[C@H]2SC1 [Cephalexin hydrate]
Z Score [6]: −3.966 | Z score [4]: −3.966 | Activity (yes/no: significantly inhibited neurosphere proliferation (P<0.01) in the primary screen): yes

CCN1C[C@]2(C)CC[C@H](O)[C@]34C1[C@@H](C[C@H]23)[C@@]1(O)C[C@H](OC)[C@H]2C[C@@H]4[C@@H]1[C@H]2O [Karakoline]
Z Score: −1.625 | Z score [4]: −1.625 | Activity [7]: no

NC(=O)COc1c(F)cc(SCCNS(=O)(=O)c2ccccc2)cc1F [2,6-Difluoro-4-[2-(phenylsulfonylamino)ethylthio]phenoxyacetamide]
Z Score: −0.4983 | Z score [4]: −0.498 | Activity [8]: no

CC(N)=O [Acetamide]
Z Score (168 h, 3 µM): −1.94 | Z score (168 h, 3 µM): −1.940 | Activity [5]: no

C[N+]1(C)CCOC(O)(c2ccc(-c3ccc(C4(O)C[N+](C)(C)CCO4)cc3)cc2)C1.[Br-].[Br-] (stereo not drawn) [Hemicholinium-3]
Z Score: 0.7871 | Z score [4]: 0.787 | Activity [7]: no

CC(C)OC(=O)C(C)(C)Oc1ccc(C(=O)c2ccc(Cl)cc2)cc1 [Fenofibrate]
Z Score [6]: −2.116 | Z score [4]: −2.116

O.O.O=c1c(O)c(-c2ccc(O)c(O)c2)oc2cc(O)cc(O)c12 [Quercetin dihydrate]
Z Score: −2.302 | Z score [4]: −2.302 | Activity [5]: no

Oc1ccc(O)cc1 [Hydroquinone]
Z Score [1]: 0.428 | Z score [4]: 0.428 | Activity [7]: no

N[C@@H]1C[C@H]1c1ccccc1 [Tranylcypromine hydrochloride]
Z Score [6]: −1.441 | Z score [4]: −1.441 | Activity [5]: no

O=C(O)CP(=O)(O)O [Phosphonoacetic acid]
Z Score (LOPAC library screen at 3 μM, secondary neurosphere cultures, MTT): −0.8885 | Z score [4]: −0.888 | Activity [5]: no

CCN(CC)CCOC(=O)C1(C2CCCCC2)CCCCC1 [Dicyclomine hydrochloride]
Z Score (168 h, 3 µM): 1.414 | Z score (168 h, 3 µM): 1.414

C=CC(N)CCC(=O)O (racemic) [(±)-gamma-Vinyl GABA]
Z score [2]: −0.701 | Activity [3]: no

R(−)-2,10,11-Trihydroxy-N-propylnoraporphine hydrobromide
Z Score: −2.744

Cl.Nc1c2c(nc3ccccc13)CCCC2 [9-Amino-1,2,3,4-tetrahydroacridine hydrochloride]
Activity: no | Z Score: −1.021 | Z score: −1.021

Hydroxytacrine maleate
Z Score: −0.2043 | Z score [4]: −0.204 | Activity [7]: no

NC(=O)c1ncn([C@@H]2O[C@H](CO)[C@@H](O)[C@H]2O)n1 [Ribavirin]
Activity: no

N#Cc1cc2nc([O-])c([O-])nc2cc1[N+](=O)[O-].[Na+].[Na+] [CNQX disodium]
Z Score [6]: −1.904 | Z score (LOPAC screen, neurosphere MTT proliferation, 3 μM, day 7): −1.904 | Activity [7]: no

NCCCCCC(=O)O [6-Aminohexanoic acid]
Activity: no | Z Score: −2.179 | Z score: −2.179

CC[C@@H](CO)NC(=O)[C@@H]1C=C2c3cccc4c3c(cn4C)C[C@H]2N(C)C1 [Methysergide maleate]
Z Score: −0.01983 | Z score [4]: −0.020 | Activity [8]: no

C[C@](N)(Cc1ccc(O)c(O)c1)C(=O)O [L-alpha-Methyl DOPA]
Z Score: −0.897 | Z score [4]: −0.897 | Activity [8]: no

Cl.Oc1cc2c(cc1O)C(c1ccccc1)CNCC2 (stereo not drawn) [(B1)-SKF-38393 hydrochloride]
Z Score: 1.28
